The assay has as its system HT-29 cells. The assay can be described thus: HT-29 necroptosis cell viability assay (TNF-α/SMAC mimetic/zVAD-FMK, CellTiter-Glo). Type of assay: cell-based. To be noted: Homo sapiens. In short, it runs like this: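 HT-29 cells (~5,000/well, overnight) in FBS-free McCoy's 5A with TNF-α 10 ng/ml, SMAC mimetic 6 μM and zVAD-FMK 10 μM plus 10-point 1:3 compound titration, 20 h at 37°C. ATP measured by CellTiter-Glo luminescence; IC50 as geometric mean of duplicates.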

Setting [1] is: HT-29, HT-29 necroptosis cell viability assay, class symbols for IC50, read-out: Activity.

Each structure is given as a SMILES string. Like-named read-outs stand apart in the source and are kept apart here.

On to `Cc1nc(C2(O)CCC2)sc1Oc1ccc(-n2ncn(Cc3c(F)cccc3F)c2=O)cc1F` [Example 586, 4-(2,6-difluorobenzyl)-2-(3-fluoro-4-((2-(1-hydroxycyclobutyl)-4-methylthiazol-5-yl)oxy)phenyl)-2,4-dihydro-3H-1,2,4-triazol-3-one], for which the IC50 under setting [1] was < 100 nM.

`Cc1nc(C)n(Cc2ccc(-n3ncn(Cc4c(F)cccc4F)c3=O)cc2F)c1C#N` [Example 123, 1-(4-(4-(2,6-difluorobenzyl)-5-oxo-4,5-dihydro-1H-1,2,4-triazol-1-yl)-2-fluorobenzyl)-2,4-dimethyl-1H-imidazole-5-carbonitrile]: the IC50 under setting [1] was 100 to 1000 nM.

`Cc1nc(N2CC(N)(CF)C2)sc1Cc1ccc(-n2ncn(Cc3c(F)cccc3F)c2=O)cc1F` [Example 453, 2-(4-((2-(3-amino-3-(fluoromethyl)azetidin-1-yl)-4-methylthiazol-5-yl)methyl)-3-fluorophenyl)-4-(2,6-difluorobenzyl)-2,4-dihydro-3H-1,2,4-triazol-3-one]: for the setting “HT-29, HT-29 necroptosis cell viability, IC50 class symbols, read-out: Activity”, the IC50 is < 100 nM.

Consider `Cc1nc(CN)sc1Oc1ccc(-n2ncn(Cc3c(F)cccc3F)c2=O)cc1` [Example 160, 2-(4-((2-(aminomethyl)-4-methylthiazol-5-yl)oxy)phenyl)-4-(2,6-difluorobenzyl)-2,4-dihydro-3H-1,2,4-triazol-3-one], for which, under setting [1], the IC50 is 100 to 1000 nM.

`COc1cc(S(=O)(=O)c2ccc(-n3ncn(Cc4c(F)cccc4F)c3=O)cc2)ccn1` [Example 618, 4-(2,6-difluorobenzyl)-2-(4-((2-methoxypyridin-4-yl)sulfonyl)phenyl)-2,4-dihydro-3H-1,2,4-triazol-3-one]: the IC50 under setting [1] was < 100 nM.

Take `Cc1nc(C(=O)NCC2COC2)sc1Oc1ccc(-n2ncn(Cc3ncccc3F)c2=O)cc1F` [Example 607, 5-(2-fluoro-4-(4-((3-fluoropyridin-2-yl)methyl)-5-oxo-4,5-dihydro-1H-1,2,4-triazol-1-yl)phenoxy)-4-methyl-N-(oxetan-3-ylmethyl)thiazole-2-carboxamide]: under setting [1], the IC50 was < 100 nM.

As for `Cc1nc(C(C)(C)O)sc1Oc1ccc(-n2ncn(Cc3c(F)cccc3C#N)c2=O)cc1F` [Example 579, 3-fluoro-2-((1-(3-fluoro-4-((2-(2-hydroxypropan-2-yl)-4-methylthiazol-5-yl)oxy)phenyl)-5-oxo-1,5-dihydro-4H-1,2,4-triazol-4-yl)methyl)benzonitrile], under setting [1], the IC50 is < 100 nM.

In the case of `Cc1c(C(N)=O)noc1Oc1ccc(-n2nc3n(c2=O)[C@H](c2ccccc2)CC3)cc1F` (single isomer, unassigned) [Example 695], the IC50 (HT-29 cells stimulated with TNF-α (10 ng/ml), SMAC mimetic (6 μM) and zVAD-FMK (10 μM), 20 hours, CellTiter-Glo ATP luminescence, geometric mean IC50 from 10 points, read-out: Activity) was < 100 nM.

In the case of `Cc1nc(C(N)=O)sc1Oc1ccc(-n2nc3n(c2=O)[C@H](c2ccc(F)cc2)CC3)cc1F` (single isomer, unassigned) [Example 668], the IC50 (HT-29, HT-29 cells, necroptosis induced by TNF-α/SMAC mimetic/zVAD-FMK, CellTiter-Glo, read-out: Activity (IC50 class)) was < 100 nM.

In the case of `CNC(=O)c1nc(C)c(Oc2ccc(-n3ncn(Cc4ccccc4F)c3=O)cc2F)s1` [Example 595, 5-(2-fluoro-4-(4-(2-fluorobenzyl)-5-oxo-4,5-dihydro-1H-1,2,4-triazol-1-yl)phenoxy)-N,4-dimethylthiazole-2-carboxamide], under setting [1], the IC50 was < 100 nM.

Take `CCOC1CN(c2nn(C)c(Oc3ccc(-n4ncn(Cc5c(F)cccc5F)c4=O)cc3)c2N)C1` [Example 517, 2-(4-((4-amino-3-(3-ethoxyazetidin-1-yl)-1-methyl-1H-pyrazol-5-yl)oxy)phenyl)-4-(2,6-difluorobenzyl)-2,4-dihydro-3H-1,2,4-triazol-3-one]: under setting [1], the IC50 fell in the range of 1000 to 10000 nM.

For the compound `Cc1nc(C#N)sc1Oc1ccc(-n2ncn(Cc3c(F)cccc3C#N)c2=O)cc1F` [Example 571, 5-(4-(4-(2-cyano-6-fluorobenzyl)-5-oxo-4,5-dihydro-1H-1,2,4-triazol-1-yl)-2-fluorophenoxy)-4-methylthiazole-2-carbonitrile], the IC50 under setting [1] was < 100 nM.

(Values after US20250179061A1 (SIRONAX LTD., priority 2022, published 2025).)
